Like-named read-outs stand apart in the source and are kept apart here.
Target: human APJ receptor (Homo sapiens (Human), UniProt P35414)
Assay: Intracellular cAMP accumulation assay (APJ hcAMP, HTRF)
Type: cell-based
Details: read-out: Human APJ cAMP EC50 Potency range
In short: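 HEK293 cells stably expressing human APJ, 5,000 per well, incubated 30 min at rt with compound, […] and 2 μM forskolin. cAMP measured by HTRF against a cAMP standard curve as inhibition of forskolin-driven production. EC50 from variable-slope sigmoidal fit.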

[1] = human APJ, intracellular cAMP accumulation
[2] = HEK293 cells stably expressing human APJ receptor, inhibition of forskolin-mediated cAMP production

Chain of human APJ receptor (P35414 whole entry): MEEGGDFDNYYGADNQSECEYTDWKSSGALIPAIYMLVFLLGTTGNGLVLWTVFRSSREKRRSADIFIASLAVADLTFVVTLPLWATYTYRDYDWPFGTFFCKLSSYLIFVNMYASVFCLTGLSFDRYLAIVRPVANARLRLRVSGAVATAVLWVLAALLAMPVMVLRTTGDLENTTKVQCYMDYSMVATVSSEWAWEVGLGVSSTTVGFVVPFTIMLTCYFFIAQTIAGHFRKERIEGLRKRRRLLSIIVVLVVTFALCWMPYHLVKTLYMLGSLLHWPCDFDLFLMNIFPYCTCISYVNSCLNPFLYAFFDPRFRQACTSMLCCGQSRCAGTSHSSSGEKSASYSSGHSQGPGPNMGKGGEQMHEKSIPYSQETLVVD

Row | SMILES | EC50 [1] | EC50 [2]
1 | CCCCc1nc(=O)c(S(=O)(=O)c2ccc(C)cn2)c(O)n1-c1c(CC)cccc1CC [Example 104, 2-butyl-1-(2,6-diethylphenyl)-6-hydroxy-5-[(5-methylpyridin-2-yl)sulfonyl]-1,4-dihydropyrimidin-4-one] | 0.01 to 10 nM | 
2 | CCCCc1nc(=O)c(S(=O)(=O)C2CCN(C(=O)OC(C)(C)C)CC2)c(O)n1-c1c(OC)cccc1OC [Example 105, tert-Butyl 4-((2-butyl-1-(2,6-dimethoxyphenyl)-6-hydroxy-4-oxo-1,4-dihydropyrimidin-5-yl)sulfonyl)piperidine-1-carboxylate] |  | 0.01 to 10 nM
3 | CCCCc1nc(=O)c(S(=O)(=O)C2CCNCC2)c(O)n1-c1c(OC)cccc1OC [Example 106, 2-Butyl-1-(2,6-dimethoxyphenyl)-6-hydroxy-5-(piperidin-4-ylsulfonyl)pyrimidin-4(1H)-one] |  | 10 to 100 nM
4 | CCCCc1nc(=O)c(S(=O)(=O)C2CCN(C)CC2)c(O)n1-c1c(OC)cccc1OC [Example 107, 2-Butyl-1-(2,6-dimethoxyphenyl)-6-hydroxy-5-((1-methylpiperidin-4-yl)sulfonyl)pyrimidin-4(1H)-one] |  | 0.01 to 10 nM
5 | CCCCc1nc(=O)c(S(=O)(=O)C2CCN(CC)CC2)c(O)n1-c1c(OC)cccc1OC [Example 108, 2-butyl-1-(2,6-dimethoxyphenyl)-5-[(1-ethylpiperidin-4-yl)sulfonyl]-6-hydroxy-1,4-dihydropyrimidin-4-one] | 0.01 to 10 nM | 
6 | CCCCc1nc(=O)c(S(=O)(=O)C2CCN(Cc3cccc(F)c3F)CC2)c(O)n1-c1c(CC)cccc1CC [Example 109, 2-butyl-1-(2,6-diethylphenyl)-5-({1-[(2,3-difluorophenyl)methyl]piperidin-4-yl}sulfonyl)-6-hydroxy-1,4-dihydropyrimidin-4-one] | 0.01 to 10 nM | 
7 | CCCCc1nc(=O)c(S(=O)(=O)C2CCN(C(=O)c3nnc(C)o3)CC2)c(O)n1-c1c(OC)cccc1OC [Example 110, 2-Butyl-1-(2,6-dimethoxyphenyl)-6-hydroxy-5-((1-(5-methyl-1,3,4-oxadiazole-2-carbonyl)piperidin-4-yl)sulfonyl)pyrimidin-4(1H)-one] |  | 0.01 to 10 nM
8 | CCCCc1nc(=O)c(S(=O)(=O)C2CCN(C(=O)c3ccccc3)CC2)c(O)n1-c1c(OC)cccc1OC [Example 111, 5-[(1-benzoylpiperidin-4-yl)sulfonyl]-2-butyl-1-(2,6-dimethoxyphenyl)-6-hydroxy-1,4-dihydropyrimidin-4-one] | 0.01 to 10 nM | 
9 | CCCCc1nc(=O)c(S(=O)(=O)C2CCN(C(=O)c3ccc(Cl)cc3)CC2)c(O)n1-c1c(OC)cccc1OC [Example 112, 2-butyl-5-{[1-(4-chlorobenzoyl)piperidin-4-yl]sulfonyl}-1-(2,6-dimethoxyphenyl)-6-hydroxy-1,4-dihydropyrimidin-4-one] | 0.01 to 10 nM | 
10 | CCCCc1nc(=O)c(S(=O)(=O)C2CCN(C(=O)C3CC3)CC2)c(O)n1-c1c(OC)cccc1OC [Example 113, 2-butyl-5-[(1-cyclopropanecarbonyl-piperidin-4-yl)sulfonyl]-1-(2,6-dimethoxyphenyl)-6-hydroxy-1,4-dihydropyrimidin-4-one] | 0.01 to 10 nM | 
11 | CCCCc1nc(=O)c(S(=O)(=O)C2CCN(C(=O)CC(F)(F)F)CC2)c(O)n1-c1c(OC)cccc1OC [Example 114, 2-butyl-1-(2,6-dimethoxyphenyl)-6-hydroxy-5-{[1-(3,3,3-trifluoropropanoyl)piper-idin-4-yl]sulfonyl}-1,4-dihydropyrimidin-4-one] | 0.01 to 10 nM | 
12 | CCCCc1nc(=O)c(S(=O)(=O)c2ccc(C(=O)NN)cc2)c(O)n1-c1c(OC)cccc1OC [Example 116, 4-((2-Butyl-1-(2,6-dimethoxyphenyl)-6-hydroxy-4-oxo-1,4-dihydropyrimidin-5-yl)sulfonyl)benzohydrazide] |  | 0.01 to 10 nM
13 | CCCCc1nc(=O)c(S(=O)(=O)c2ccc(-c3nnc(C4CC4)o3)cc2)c(O)n1-c1c(OC)cccc1OC [Example 117, 2-butyl-5-[4-(5-cyclopropyl-1,3,4-oxadiazol-2-yl)benzenesulfonyl]-1-(2,6-dimethoxyphenyl)-6-hydroxy-1,4-dihydropyrimidin-4-one] | 0.01 to 10 nM | 
14 | CCCCc1nc(=O)c(S(=O)(=O)c2ccc(Br)cc2)c(O)n1[C@@H](C)c1ccccc1 [Example 118, (S)-5-((4-Bromophenyl)sulfonyl)-2-butyl-6-hydroxy-1-(1-phenylethyl)pyrimidin-4(1H)-one] |  | 100 to 300 nM
15 | CCCCc1nc(=O)c(S(=O)(=O)c2ccc(Br)cc2)c(O)n1[C@@H](COC)c1ccccc1 [Example 119, 5-(4-bromobenzenesulfonyl)-2-butyl-6-hydroxy-1-[(1R)-2-methoxy-1-phenylethyl]-1,4-dihydropyrimidin-4-one] | 10 to 100 nM | 
16 | CCCCc1nc(=O)c(S(=O)(=O)c2ccc(Br)cc2)c(O)n1[C@H]1CCc2ccccc21 [Example 120, 5-(4-bromobenzenesulfonyl)-2-butyl-1-[(1S)-2,3-dihydro-1H-inden-1-yl]-6-hydroxy-1,4-dihydropyrimidin-4-one] | 10 to 100 nM | 

Row | SMILES | EC50 [1] | EC50 [2]
17 | CCCCc1nc(=O)c(S(=O)(=O)c2ccc(Br)cc2)c(O)n1[C@H](C)c1cccc(C#N)c1 [Example 121, 3-[(1R)-1-[5-(4-bromobenzenesulfonyl)-2-butyl-6-hydroxy-4-oxo-1,4-dihydropyrimidin-1-yl]ethyl]benzonitrile] | 100 to 300 nM | 
18 | CCCCc1nc(=O)c(S(=O)(=O)c2ccc(Br)cc2)c(O)n1[C@@H](C)c1cccc(C#N)c1 [Example 122, 3-[(1S)-1-[5-(4-bromobenzenesulfonyl)-2-butyl-6-hydroxy-4-oxo-1,4-dihydropyrimidin-1-yl]ethyl]benzonitrile] | 10 to 100 nM | 
19 | COC[C@@H](c1ccccc1)n1c(CC2CC2)nc(=O)c(S(=O)(=O)c2ccc(Br)cc2)c1O [Example 123, 5-(4-bromobenzenesulfonyl)-2-(cyclopropylmethyl)-6-hydroxy-1-[(1R)-2-methoxy-1-phenylethyl]-1,4-dihydropyrimidin-4-one] | 100 to 300 nM | 
20 | CCCCc1nc(=O)c(S(=O)(=O)c2ccc(Br)cc2)c(O)n1[C@@H](CC)c1cccc(OC)c1 [Example 124, 5-(4-bromobenzenesulfonyl)-2-butyl-6-hydroxy-1-[(1S)-1-(3-methoxyphenyl)propyl]-1,4-dihydropyrimidin-4-one] | 10 to 100 nM | 
21 | CCCc1nc(=O)c(S(=O)(=O)c2ccc(Br)cc2)c(O)n1[C@@H](COC)c1ccccc1 [Example 125, 5-(4-bromobenzenesulfonyl)-6-hydroxy-1-[(1R)-2-methoxy-1-phenylethyl]-2-propyl-1,4-dihydropyrimidin-4-one] | 100 to 300 nM | 
22 | CCCCc1nc(=O)c(S(=O)(=O)c2ccc(Br)cc2)c(O)n1[C@H](CC)c1ccccc1 [Example 126, 5-(4-bromobenzenesulfonyl)-2-butyl-6-hydroxy-1-[(1R)-1-phenylpropyl]-1,4-dihydropyrimidin-4-one] | 10 to 100 nM | 
23 | CCCCc1nc(=O)c(S(=O)(=O)c2ccc(Br)cc2)c(O)n1[C@H](C)c1ccccc1 [Example 127, 5-(4-bromobenzenesulfonyl)-2-butyl-6-hydroxy-1-[(1R)-1-phenylethyl]-1,4-dihydropyrimidin-4-one] | 10 to 100 nM | 
24 | CCCCc1nc(=O)c(S(=O)(=O)c2ccc(-c3cncc(F)c3)cc2)c(O)n1[C@@H](C)c1ccccc1 [Example 128, (S)-2-Butyl-5-((4-(5-fluoropyridin-3-yl)phenyl)sulfonyl)-6-hydroxy-1-(1-phenylethyl)pyrimidin-4(1H)-one] |  | 0.01 to 10 nM
25 | CCCCc1nc(=O)c(S(=O)(=O)c2ccc(C)cc2)c(O)n1[C@@H](C)c1ccccc1 [Example 129, 2-butyl-6-hydroxy-5-(4-methylbenzenesulfonyl)-1-[(1S)-1-phenylethyl]-1,4-dihydropyrimidin-4-one] | 100 to 300 nM | 
26 | CCCCc1nc(=O)c(S(=O)(=O)c2ccc(C)cc2)c(O)n1[C@H](C)c1ccccc1 [Example 130, 2-butyl-6-hydroxy-5-(4-methylbenzenesulfonyl)-1-[(1R)-1-phenylethyl]-1,4-dihydropyrimidin-4-one] | 10 to 100 nM | 
27 | CCCCc1nc(=O)c(S(=O)(=O)c2ccc(-c3cncc(F)c3)cc2)c(O)n1[C@H](C)c1ccccc1 [Example 131, 2-butyl-5-[4-(5-fluoropyridin-3-yl)benzenesulfonyl]-6-hydroxy-1-[(1R)-1-phenylethyl]-1,4-dihydropyrimidin-4-one] | 10 to 100 nM | 
28 | CCCCc1nc(=O)c(S(=O)(=O)c2ccc(-c3cncc(F)c3)cc2)c(O)n1[C@@H](COC)c1ccccc1 [Example 132, 2-butyl-5-[4-(5-fluoropyridin-3-yl)benzenesulfonyl]-6-hydroxy-1-[(1R)-2-methoxy-1-phenylethyl]-1,4-dihydropyrimidin-4-one] | 0.01 to 10 nM | 
29 | CCCCc1nc(=O)c(S(=O)(=O)c2ccc(-c3ccc(F)nc3)cc2)c(O)n1[C@@H](COC)c1ccccc1 [Example 133, 2-butyl-5-[4-(6-fluoropyridin-3-yl)benzenesulfonyl]-6-hydroxy-1-[(1R)-2-methoxy-1-phenylethyl]-1,4-dihydropyrimidin-4-one] | 0.01 to 10 nM | 
30 | CCCCc1nc(=O)c(S(=O)(=O)c2ccc(-c3ccncc3C)cc2)c(O)n1[C@@H](COC)c1ccccc1 [Example 134, 2-butyl-6-hydroxy-1-[(1R)-2-methoxy-1-phenylethyl]-5-[4-(3-methylpyridin-4-yl)benzenesulfonyl]-1,4-dihydropyrimidin-4-one] | 0.01 to 10 nM | 
31 | CCCCc1nc(=O)c(S(=O)(=O)c2ccc(-c3ccc(F)nc3)cc2)c(O)n1[C@@H](C)c1ccccc1 [Example 135, 2-butyl-5-[4-(6-fluoropyridin-3-yl)benzenesulfonyl]-6-hydroxy-1-[(1S)-1-phenylethyl]-1,4-dihydropyrimidin-4-one] | 0.01 to 10 nM | 
32 | CCCCc1nc(=O)c(S(=O)(=O)c2ccc(-c3ccc(F)nc3)cc2)c(O)n1[C@H](C)c1ccccc1 [Example 136, 2-butyl-5-[4-(6-fluoropyridin-3-yl)benzenesulfonyl]-6-hydroxy-1-[(1R)-1-phenylethyl]-1,4-dihydropyrimidin-4-one] | 0.01 to 10 nM | 

— patent US10508104B2, “6-hydroxy-5-(phenyl/heteroarylsulfonyl)pyrimidin-4(1H)-one as APJ agonists” (Bristol-Myers Squibb Company, priority 2016, dated 2019)
